Assay results: the NIST ThermoML archive (doi:10.1021/je2007549)
± gives the expanded uncertainty stated by the source.

Columns and labels:
[1] = 101 kPa, Liquid; for electrical conductivity: Direct current cell with electrodes; for viscosity: Falling or rolling sphere viscometry; for mass density: Vibrating tube method
[2] = xn = mol fraction of the nth substance listed; conditions: 101 kPa, Liquid; for electrical conductivity: Direct current cell with electrodes; for mass density: Vibrating tube method; for viscosity: n

CC(C)C[C@H](N)C(=O)[O-].CCCC[P+](CCCC)(CCCC)CCCN [(3-aminopropyl)tributylphosphonium L-leucinate]
[1]
Conditions | electrical conductivity [S/m] | mass density [kg/m3] | viscosity [mPa·s]
298.15 K | 0.008 ± 0.00016 | 971.86 ± 5.1 | 1227.9 ± 140
303.15 K | 0.0108 ± 0.00022 | 968.8 ± 5.1 | 855.26 ± 85
313.15 K | 0.0185 ± 0.00037 | 962.68 ± 5 | 417.9 ± 34
323.15 K | 0.0291 ± 0.00058 | 956.54 ± 5 | 224.29 ± 15
333.15 K | 0.0414 ± 0.00083 | 950.54 ± 4.9 | 130.46 ± 7.4
343.15 K | 0.0605 ± 0.0012 | 944.58 ± 4.8 | 81.01 ± 4.1

CC(C)[C@H](N)C(=O)[O-].CCCC[P+](CCCC)(CCCC)CCCN [(3-aminopropyl)tributylphosphonium L-valinate] + O
[2]
Conditions | electrical conductivity [S/m] | mass density [kg/m3] | viscosity [mPa·s]
298.15 K, x2 = 0 | 0.00815 ± 0.00016 | 980.72 ± 5.2 | 1015.5 ± 50
298.15 K, x2 = 0.25 | 0.0116 ± 0.00023 | 982.82 ± 3.3 | 734.22 ± 34
298.15 K, x2 = 0.5 | 0.0168 ± 0.00034 | 987.18 ± 1.8 | 505.63 ± 22
298.15 K, x2 = 0.75 | 0.0414 ± 0.00083 | 995.89 ± 0.83 | 237.96 ± 10
303.15 K, x2 = 0 | 0.011 ± 0.00022 | 977.68 ± 5.2 | 695.04 ± 34
303.15 K, x2 = 0.25 | 0.0158 ± 0.00032 | 979.76 ± 3.3 | 508.12 ± 24
303.15 K, x2 = 0.5 | 0.0237 ± 0.00047 | 984.04 ± 1.8 | 335.23 ± 15
303.15 K, x2 = 0.75 | 0.0547 ± 0.0011 | 992.65 ± 0.83 | 168.93 ± 7.2
313.15 K, x2 = 0 | 0.0188 ± 0.00038 | 971.57 ± 5.1 | 350.86 ± 17
313.15 K, x2 = 0.25 | 0.0253 ± 0.00051 | 973.59 ± 3.2 | 259.52 ± 12
313.15 K, x2 = 0.5 | 0.0401 ± 0.0008 | 977.71 ± 1.8 | 184.22 ± 8.2
313.15 K, x2 = 0.75 | 0.0853 ± 0.0017 | 986.16 ± 0.82 | 92.15 ± 4
323.15 K, x2 = 0 | 0.0294 ± 0.00059 | 965.45 ± 5 | 192.24 ± 9.4
323.15 K, x2 = 0.25 | 0.0392 ± 0.00078 | 967.39 ± 3.2 | 145.61 ± 6.7
323.15 K, x2 = 0.5 | 0.0635 ± 0.0013 | 971.55 ± 1.8 | 102.76 ± 4.5
323.15 K, x2 = 0.75 | 0.128 ± 0.0026 | 979.59 ± 0.81 | 56.03 ± 2.4
333.15 K, x2 = 0 | 0.0447 ± 0.00089 | 959.5 ± 5 | 114.05 ± 5.5
333.15 K, x2 = 0.25 | 0.0563 ± 0.0011 | 961.39 ± 3.1 | 87.86 ± 4
333.15 K, x2 = 0.5 | 0.093 ± 0.0019 | 965.34 ± 1.8 | 65.77 ± 2.9
333.15 K, x2 = 0.75 | 0.183 ± 0.0037 | 972.96 ± 0.81 | 36.96 ± 1.6
343.15 K, x2 = 0 | 0.065 ± 0.0013 | 953.54 ± 4.9 | 72.45 ± 3.5
343.15 K, x2 = 0.25 | 0.0858 ± 0.0017 | 955.37 ± 3.1 | 56.87 ± 2.6
343.15 K, x2 = 0.5 | 0.132 ± 0.0026 | 959.05 ± 1.8 | 43.81 ± 1.9
343.15 K, x2 = 0.75 | 0.258 ± 0.0052 | 966.29 ± 0.8 | 24.58 ± 1

CCCC[P+](CCCC)(CCCC)CCCN.C[C@H](N)C(=O)[O-] [(3-aminopropyl)tributylphosphonium L-alaninate]
[1]
Conditions | electrical conductivity [S/m] | mass density [kg/m3] | viscosity [mPa·s]
298.15 K | 0.0141 ± 0.00028 | 986.75 ± 5.3 | 804.88 ± 79
303.15 K | 0.0209 ± 0.00042 | 983.72 ± 5.2 | 561.4 ± 50
313.15 K | 0.032 ± 0.00064 | 977.65 ± 5.2 | 291.07 ± 21
323.15 K | 0.0464 ± 0.00093 | 971.62 ± 5.1 | 164.61 ± 10
333.15 K | 0.0649 ± 0.0013 | 965.71 ± 5 | 106.7 ± 5.7
343.15 K | 0.0884 ± 0.0018 | 959.97 ± 5 | 65.96 ± 3.3

CC(C)[C@H](N)C(=O)[O-].CCCC[P+](CCCC)(CCCC)CCCN [(3-aminopropyl)tributylphosphonium L-valinate]
[1]
Conditions | electrical conductivity [S/m] | mass density [kg/m3] | viscosity [mPa·s]
298.15 K | 0.00815 ± 0.00016 | 980.72 ± 5.2 | 1015.5 ± 110
303.15 K | 0.011 ± 0.00022 | 977.68 ± 5.2 | 695.04 ± 66
313.15 K | 0.0188 ± 0.00038 | 971.57 ± 5.1 | 350.86 ± 27
323.15 K | 0.0294 ± 0.00059 | 965.45 ± 5 | 192.24 ± 12
333.15 K | 0.0447 ± 0.00089 | 959.5 ± 5 | 114.05 ± 6.2
343.15 K | 0.065 ± 0.0013 | 953.54 ± 4.9 | 72.45 ± 3.6
